Data published in patent US20210393677A1, “COMPOUNDS FOR MODULATION AND AS FUNCTIONAL REPLACEMENT OF ALPHAKETOGLUTARIC ACID (2OG)-DEPENDENT OXYGENASES” (priority 2018, published 2021).

Key:
HCT116 IDH1+/+ cells = experiment: 2-HG content by LC-MS/MS in HCT116 IDH1+/+ cells; format: cell-based, human; details: ML309 10 μM, untreated 0.15
Method: Es is known that IDH1 mutations are connected with a modified IDH1 enzyme function that induces the excess production of neomorphous metabolite 2-hydroxyglutarate. In order to validate the increased frequency of 2-HG in HCT116 IDH1R132H/+ cells compared to HCT116 IDH1+/+ cells, the 2-HG content was analyzed by means of LC-MS/MS analysis (illustration 1). Intracellular 2-HG in IDH1R132H/+ cells was 56 times higher than in IDH1 wildtype cells (8.5 nmol/mg protein or 0.15 nmol/mg protein; 56 times higher; p<0.0001). Furthermore, the treatment with the IDH1 inhibitor ML309 (10 μM) led to a significant reduction of the oncometabolite 2-HG in the HCT116 IDH1R132H/+ cells to (0.3 nmol/mg protein) and to a lower degree of IDH1+/+ (0.04 nmol/mg protein) (Fig.). In contrast, DKA produced only minimum changes in the 2-HG concentrations in the mutated cells (5.9 nmol/mg protein). […] FIG. 10.
HCT116 (ATCC-Nr. CCL-247), a human colorectal carcinoma cell line, was acquired from the American Type Culture Collection (ATCC; https://www.atcc.org/). Human colon carcinoma cells HCT116 IDH1+/+ and HCT116 IDH1R132H/+ come from Horizon Discovery and were let us for test purposes. The cells were cultured in Dulbecco's Modified Eagle's Medium (DMEM) with 2 mM L-glutamine, supplemented with 10% fetal bovine serum (FBS), 45 IU/ml penicillin and 45 IU/ml streptomycin. […]

[1] = test system: TET enzymes in IDH1R132H/+ cells; experiment: activation of TET enzymes in IDH1R132H/+ cells (5-hmdC levels); format: cell-based, human; details: IDH1R132H/+ cells (FIG. 11)
Method: Likewise, promotion of the secondary apoptosis occurs, which indicates the recovery of the cell function on a molecular level (cf. FIG. 11). The native 2-OG again enters into the normal cell metabolism and thus again inhibits the malignant derailment of the cell (secondary way of formation of 2-OG from glutamic acid is omitted).
Samples of genomic DNA (20 μg) were hydrolyzed with micrococcal nuclease from Staphylococcus aureus, bovine spleen phosphodiesterase, and bovine intestinal alkaline phosphatase (all from Sigma-Aldrich, Taufkirchen, Germany) to 2′-deoxynucleosides, as described, with modifications of the application. […] Then, DNA hydrolysates were centrifuged (5 min, 16,000×g), and 10 μL of the supernatants were used for the quantification of dC and 5-mdC stable marked references.
Compounds [15N2,13Cl]dC and 5-mdC-d3 (both from Toronto Research Chemicals, Toronto, Canada). […] Chromatographic conditions and settings of the ESI source were as described for the quantification of dC and 5-mdC [62]. […] The quantification of 5-hmdC with respect to the stable isotope-marked standard that were both eluted at 4.9 min from the LC column (the retention times of dC and 5-mdC were 4.7 or 6.0 min, respectively), was performed with the aid of the Multiple Reaction Monitoring (MRM) approach. […] For clear identification, further mass transitions were recorded. […]

TET enzyme = experiment: cell-free TET assay (co-substrate function); format: biochemical; details: FIG. 16B

| SMILES | intracellular 2-HG (HCT116 IDH1+/+ cells) [nmol/mg protein] | activation of the inhibited TET enzymes [1] | effect in the assay (TET enzyme) |
| --- | --- | --- | --- |
| Cc1ccccc1C(C(=O)NC1CCCC1)N(C(=O)Cn1cnc2ccccc21)c1cccc(F)c1 (stereo not drawn) [ML309, reference compound] | 0.04 | does not activate | – |
| O=C(O)C(=O)C(O)C(O)C(O)CO (stereo not drawn) [2-ketogulonic acid] | – | – | dose-dependent effect |
